{"source": "patent US11186606B2", "about": "“Compositions and methods of modulating the immune response by activating alpha protein kinase 1” (Shanghai Yao Yuan Biotechnology Co., Ltd., priority 2017, dated 2021)", "molecular_target": "ALPK1 (Homo sapiens, UniProt Q96QP1)", "sequence (Q96QP1 whole entry)": "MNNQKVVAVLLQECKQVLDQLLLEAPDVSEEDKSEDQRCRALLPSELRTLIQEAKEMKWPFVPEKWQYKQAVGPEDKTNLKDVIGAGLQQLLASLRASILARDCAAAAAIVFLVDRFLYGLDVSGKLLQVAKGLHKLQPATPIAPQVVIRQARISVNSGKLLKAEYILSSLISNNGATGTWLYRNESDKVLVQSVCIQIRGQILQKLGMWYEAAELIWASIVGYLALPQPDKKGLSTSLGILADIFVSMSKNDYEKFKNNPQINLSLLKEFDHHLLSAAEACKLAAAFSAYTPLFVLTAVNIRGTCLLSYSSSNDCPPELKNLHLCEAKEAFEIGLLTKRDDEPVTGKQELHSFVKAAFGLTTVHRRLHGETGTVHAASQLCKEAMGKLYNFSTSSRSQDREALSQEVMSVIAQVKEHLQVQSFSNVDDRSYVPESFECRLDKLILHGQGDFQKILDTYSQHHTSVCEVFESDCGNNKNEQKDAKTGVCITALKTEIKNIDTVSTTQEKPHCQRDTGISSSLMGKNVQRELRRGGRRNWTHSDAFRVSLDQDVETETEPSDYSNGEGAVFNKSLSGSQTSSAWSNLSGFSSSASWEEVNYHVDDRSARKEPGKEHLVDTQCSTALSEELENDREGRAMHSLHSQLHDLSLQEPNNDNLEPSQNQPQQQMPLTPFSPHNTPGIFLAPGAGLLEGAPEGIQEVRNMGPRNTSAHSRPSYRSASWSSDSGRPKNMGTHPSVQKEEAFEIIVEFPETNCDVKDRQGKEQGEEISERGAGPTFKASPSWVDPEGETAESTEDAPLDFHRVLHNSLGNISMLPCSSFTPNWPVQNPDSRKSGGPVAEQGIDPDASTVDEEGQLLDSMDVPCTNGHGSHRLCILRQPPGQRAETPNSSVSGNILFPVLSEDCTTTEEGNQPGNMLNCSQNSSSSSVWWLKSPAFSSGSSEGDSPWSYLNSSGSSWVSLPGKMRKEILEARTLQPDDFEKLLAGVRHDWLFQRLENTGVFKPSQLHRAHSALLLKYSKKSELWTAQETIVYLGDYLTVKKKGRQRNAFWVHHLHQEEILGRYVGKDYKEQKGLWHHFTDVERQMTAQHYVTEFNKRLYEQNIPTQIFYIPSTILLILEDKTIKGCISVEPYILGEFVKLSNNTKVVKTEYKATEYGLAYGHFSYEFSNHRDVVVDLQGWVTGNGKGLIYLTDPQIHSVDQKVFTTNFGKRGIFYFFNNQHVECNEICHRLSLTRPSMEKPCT", "assay": "IL8 secretion in HEK293 cells (IL8 ELISA) as indicator of ALPK1 activation", "settings": "for IL8 secretion in HEK293 cells: 4 hours", "data": [{"smiles": "CC(=O)OC[C@H](OC(C)=O)[C@H]1O[C@@H](OP(=O)(O)OP(=O)(O)OC[C@H]2O[C@@H](n3cnc4c(N)ncnc43)[C@H](O)[C@@H]2O)[C@@H](OC(C)=O)[C@@H](OC(C)=O)[C@@H]1OC(C)=O", "note": "[Compound 21, (2S,3S,4S,5R,6R)-2-(((((((2R,3S,4R,5R)-5-(6-amino-9H-purin-9-yl)-3,4-dihydroxytetrahydrofuran-2-yl)methoxy)(hydroxy)phosphoryl)oxy)(hydroxy)phosphoryl)oxy)-6-((S)-1,2-diacetoxyethyl)tetrahydro-2H-pyran-3,4,5-triyl triacetate]", "values": [{"measurement": "IL8 secretion in HEK293 cells", "setting": "with 10% FBS", "result": "increased IL8 secretion"}, {"measurement": "IL8 secretion in HEK293 cells", "setting": "without FBS", "result": "increased IL8 secretion"}]}, {"smiles": "COC1C(OC)[C@@H](COP(=O)(O)OP(=O)(O)O[C@@H]2OC([C@H](O)CO)[C@@H](O)C(O)C2O)O[C@H]1n1cnc2c(N)ncnc21", "note": "(stereo partly drawn) [Compound 14, Adenosine-2′3′-dimethoxy-5′-(D-glycero-β-D-mannoheptopyranosyl) diphosphate]", "values": [{"measurement": "IL8 secretion in HEK293 cells", "setting": "with 10% FBS", "result": "increased IL8 secretion"}, {"measurement": "IL8 secretion in HEK293 cells", "setting": "without FBS", "result": "increased IL8 secretion"}]}, {"smiles": "CC(=O)OC[C@@H](OC(C)=O)[C@H]1O[C@@H](OP(=O)(O)OP(O)(=S)OC[C@H]2O[C@@H](n3cnc4c(N)ncnc43)[C@H](O)[C@@H]2O)[C@@H](OC(C)=O)[C@@H](OC(C)=O)[C@@H]1OC(C)=O", "note": "(stereo partly drawn) [Compound 15, (2S,3S,4S,5R,6R)-2-(((((((2R,3S,4R,5R)-5-(6-amino-9H-purin-9-yl)-3,4-dihydroxytetrahydrofuran-2-yl)methoxy)(hydroxy)phosphorothioyl)oxy)(hydroxy)phosphoryl)oxy)-6-((R)-1,2-diacetoxyethyl)tetrahydro-2H-pyran-3,4,5-triyl triacetate]", "values": [{"measurement": "resistance to serum degradation", "setting": "compare without FBS and with 10% FBS (FIG. 27A and FIG. 27B)", "result": "unexpected resistance to serum degradation"}, {"measurement": "IL8 secretion in HEK293 cells", "setting": "with 10% FBS", "result": "activate IL8 secretion"}, {"measurement": "IL8 secretion in HEK293 cells", "setting": "without FBS", "result": "activate IL8 secretion"}]}, {"smiles": "Nc1ncnc2c1ncn2[C@@H]1O[C@H](COP(O)(=S)OP(=O)(O)O[C@@H]2OC([C@H](O)CO)[C@@H](O)C(O)C2O)C(O)C1O", "note": "(some centres unmarked) [Compound 16]", "values": [{"measurement": "IL8 secretion in HEK293 cells", "setting": "with 10% FBS", "result": "increased IL8 secretion"}, {"measurement": "IL8 secretion in HEK293 cells", "setting": "without FBS", "result": "increased IL8 secretion"}]}, {"smiles": "CC(=O)OC[C@@H](OC(C)=O)[C@H]1O[C@@H](OP(=O)(O)OP(=O)(O)OC[C@@]2(F)O[C@@H](n3cnc4c(N)ncnc43)[C@@H]3OC(C)(C)O[C@@H]32)[C@@H](OC(C)=O)[C@@H](OC(C)=O)[C@@H]1OC(C)=O", "note": "[Compound 19, (2S,3S,4S,5R,6R)-2-(((((((3aS,4S,6R,6aR)-6-(6-amino-9H-purin-9-yl)-4-fluoro-2,2-dimethyltetrahydrofuro[3,4-d][1,3]dioxol-4-yl)methoxy)(hydroxy)phosphoryl)oxy)(hydroxy)phosphoryl)oxy)-6-((R)-1,2-diacetoxyethyl)tetrahydro-2H-pyran-3,4,5-triyl triacetate]", "values": [{"measurement": "IL8 secretion in HEK293 cells", "setting": "with 10% FBS", "result": "activate IL8 secretion"}, {"measurement": "IL8 secretion in HEK293 cells", "setting": "without FBS", "result": "activate IL8 secretion"}]}, {"smiles": "CC(=O)OC[C@H](F)[C@H]1O[C@@H](OP(=O)(O)OP(=O)(O)OC[C@H]2O[C@@H](n3cnc4c(N)ncnc43)[C@H](O)[C@@H]2O)[C@@H](OC(C)=O)[C@@H](OC(C)=O)[C@@H]1OC(C)=O", "note": "[Compound 3, (2S,3S,4S,5S,6S)-2-((S)-2-acetoxy-1-fluoroethyl)-6-(((((((2R,3S,4R,5R)-5-(6-amino-9H-purin-9-yl)-3,4-dihydroxytetrahydrofuran-2-yl)methoxy)(hydroxy)phosphoryl)oxy)(hydroxy)phosphoryl)oxy)tetrahydro-2H-pyran-3,4,5-triyl triacetate]", "values": [{"measurement": "IL8 secretion in HEK293 cells", "setting": "with 10% FBS", "result": "activate IL8 secretion"}, {"measurement": "IL8 secretion in HEK293 cells", "setting": "without FBS", "result": "activate IL8 secretion"}]}, {"smiles": "Nc1ncnc2c1ncn2[C@@H]1O[C@H](COP(=O)(O)OP(=O)(O)O[C@@H]2OC([C@@H](O)CO)[C@@H](O)C(O)C2O)C(O)C1O", "note": "(stereo partly drawn) [Compound 22, Adenosine-5′-(L-glycero-β-D-mannoheptopyranosyl) diphosphate]", "values": [{"measurement": "IL8 secretion in HEK293 cells", "setting": "with 10% FBS", "result": "increased IL8 secretion"}, {"measurement": "IL8 secretion in HEK293 cells", "setting": "without FBS", "result": "increased IL8 secretion"}]}, {"smiles": "CC(=O)OC[C@H]1O[C@@H](OP(=O)(O)OP(=O)(O)OC[C@H]2O[C@@H](n3cnc4c(N)ncnc43)[C@H](O)[C@@H]2O)[C@@H](OC(C)=O)[C@@H](OC(C)=O)[C@@H]1OC(C)=O", "note": "[Compound 5, (2R,3R,4S,5S,6S)-2-(acetoxymethyl)-6-(((((((2R,3S,4R,5R)-5-(6-amino-9H-purin-9-yl)-3,4-dihydroxytetrahydrofuran-2-yl)methoxy)(hydroxy)phosphoryl)oxy)(hydroxy)phosphoryl)oxy)tetrahydro-2H-pyran-3,4,5-triyl triacetate]", "values": [{"measurement": "IL8 secretion in HEK293 cells", "setting": "with 10% FBS", "result": "increased IL8 secretion"}, {"measurement": "IL8 secretion in HEK293 cells", "setting": "without FBS", "result": "increased IL8 secretion"}]}, {"smiles": "CO[C@@H]1[C@H](OC)[C@@H](COP(=O)(O)OP(=O)(O)O[C@@H]2O[C@H]([C@@H](COC(C)=O)OC(C)=O)[C@@H](OC(C)=O)[C@H](OC(C)=O)[C@@H]2OC(C)=O)O[C@H]1n1cnc2c(N)ncnc21", "note": "[Compound 13, (2S,3S,4S,5R,6R)-2-(((((((2R,3R,4R,5R)-5-(6-amino-9H-purin-9-yl)-3,4-dimethoxytetrahydrofuran-2-yl)methoxy)(hydroxy)phosphoryl)oxy)(hydroxy)phosphoryl)oxy)-6-((R)-1,2-diacetoxyethyl)tetrahydro-2H-pyran-3,4,5-triyl triacetate]", "values": [{"measurement": "IL8 secretion in HEK293 cells", "setting": "with 10% FBS", "result": "increased IL8 secretion"}, {"measurement": "IL8 secretion in HEK293 cells", "setting": "without FBS", "result": "increased IL8 secretion"}]}, {"smiles": "CC(=O)OC[C@@H](OC(C)=O)[C@H]1O[C@@H](OP(=O)(O)OP(=O)(O)OC[C@H]2O[C@@H](n3cnc4c(N)ncnc43)[C@H](O)[C@H]2F)[C@@H](OC(C)=O)[C@@H](OC(C)=O)[C@@H]1OC(C)=O", "note": "[Compound 17, (2S,3S,4S,5R,6R)-2-(((((((2R,3R,4S,5R)-5-(6-amino-9H-purin-9-yl)-3-fluoro-4-hydroxytetrahydrofuran-2-yl)methoxy)(hydroxy)phosphoryl)oxy)(hydroxy)phosphoryl)oxy)-6-((R)-1,2-diacetoxyethyl)tetrahydro-2H-pyran-3,4,5-triyl triacetate]", "values": [{"measurement": "IL8 secretion in HEK293 cells", "setting": "with 10% FBS", "result": "increased IL8 secretion"}, {"measurement": "IL8 secretion in HEK293 cells", "setting": "without FBS", "result": "increased IL8 secretion"}]}, {"smiles": "CC(=O)OC[C@@H](OC(C)=O)[C@H]1O[C@@H](OP(=O)(O)OP(=O)(O)OC[C@@]2(F)O[C@@H](n3cnc4c(N)ncnc43)[C@H](O)[C@@H]2O)[C@@H](OC(C)=O)[C@@H](OC(C)=O)[C@@H]1OC(C)=O", "note": "[Compound 20, (2S,3S,4S,5R,6R)-2-(((((((2S,3S,4R,5R)-5-(6-amino-9H-purin-9-yl)-2-fluoro-3,4-dihydroxytetrahydrofuran-2-yl)methoxy)(hydroxy)phosphoryl)oxy)(hydroxy)phosphoryl)oxy)-6-((R)-1,2-diacetoxyethyl)tetrahydro-2H-pyran-3,4,5-triyl triacetate]", "values": [{"measurement": "IL8 secretion in HEK293 cells", "setting": "with 10% FBS", "result": "activate IL8 secretion"}, {"measurement": "IL8 secretion in HEK293 cells", "setting": "without FBS", "result": "activate IL8 secretion"}]}]}
